Our source for the IC50 values is patent US5512562A, “Tricyclic 2,3,4,5-tetrahydro-1H-3-benzapines” (Novo Nordisk A/S, priority 1993, dated 1996).

This assay has as its target T1, dopamine D1 receptor (Rattus norvegicus, UniProt P18901).
T1 construct: from tissue; host or cells: rat striatum homogenate
In words: binding to dopamine D1 receptor in homogenates from rat striatum. Here is the method:
The compounds of the invention are useful because of their pharmacological activity. In particular, the compounds of the invention are active in assays predictive for antipsychotic effect. Thus the compounds of formula I were tested for their binding to dopamine D1 receptor in homogenates from rat striatum using the method described (Life Science vol. 37, p. 1971 (1985) P. Andersen et al.) and the result appears from Table I. IC50 is the affinity of tested compounds for the dopamine D1 receptor.

pIC50: −log10 of the molar value.

T1 sequence (P18901 whole entry): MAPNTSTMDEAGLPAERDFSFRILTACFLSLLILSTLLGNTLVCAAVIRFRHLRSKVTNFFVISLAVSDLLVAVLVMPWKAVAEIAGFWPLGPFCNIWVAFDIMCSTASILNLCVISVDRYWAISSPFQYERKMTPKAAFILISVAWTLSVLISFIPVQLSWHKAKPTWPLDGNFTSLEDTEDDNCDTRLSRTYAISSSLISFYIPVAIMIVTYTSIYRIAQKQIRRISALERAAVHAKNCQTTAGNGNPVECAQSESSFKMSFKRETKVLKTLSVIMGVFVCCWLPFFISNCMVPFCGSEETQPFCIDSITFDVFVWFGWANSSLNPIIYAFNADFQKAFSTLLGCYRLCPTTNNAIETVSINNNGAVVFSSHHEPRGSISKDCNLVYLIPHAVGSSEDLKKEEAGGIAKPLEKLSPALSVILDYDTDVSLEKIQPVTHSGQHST

In the case of `CN1CCc2c(ccc3ccoc23)C(c2cccc3ccoc23)C1` (racemic) [Example 1, 6-(Benzofuran-7-yl)-8-methyl-7,8,9,10-tetrahydro-6H-furo 2,3-g! 3!benzazepine], the pIC50 (commonly −log10 of the IC50, conventionally taken in molar units) was 7.92.
